Legend:
[1] = target: T1, Matrilysin (Homo sapiens, UniProt P09237)
T1 sequence (P09237 whole entry): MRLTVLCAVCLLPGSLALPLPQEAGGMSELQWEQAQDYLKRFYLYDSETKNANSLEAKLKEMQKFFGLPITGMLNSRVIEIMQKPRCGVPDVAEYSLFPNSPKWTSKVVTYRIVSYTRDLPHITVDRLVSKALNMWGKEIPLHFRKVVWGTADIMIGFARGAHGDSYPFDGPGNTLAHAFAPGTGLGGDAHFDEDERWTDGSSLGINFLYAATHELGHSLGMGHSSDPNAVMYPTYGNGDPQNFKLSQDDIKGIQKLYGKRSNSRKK
Description: In vitro inhibitory activity against matrilysin (matrix metalloprotease-7).

[2] = target: T2, Interstitial collagenase (Homo sapiens, UniProt P03956)
T2 sequence (P03956 whole entry): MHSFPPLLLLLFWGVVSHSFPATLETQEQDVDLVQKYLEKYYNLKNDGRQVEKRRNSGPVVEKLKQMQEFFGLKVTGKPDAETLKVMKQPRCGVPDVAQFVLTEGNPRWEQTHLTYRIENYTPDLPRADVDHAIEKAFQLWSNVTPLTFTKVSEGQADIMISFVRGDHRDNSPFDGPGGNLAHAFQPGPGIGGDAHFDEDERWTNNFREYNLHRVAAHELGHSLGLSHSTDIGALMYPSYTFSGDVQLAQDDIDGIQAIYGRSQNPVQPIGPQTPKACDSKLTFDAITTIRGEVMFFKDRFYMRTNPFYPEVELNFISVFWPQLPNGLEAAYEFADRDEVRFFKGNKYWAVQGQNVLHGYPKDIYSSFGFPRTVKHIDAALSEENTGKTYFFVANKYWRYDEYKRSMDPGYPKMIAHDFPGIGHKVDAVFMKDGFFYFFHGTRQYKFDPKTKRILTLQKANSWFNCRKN
Description: In vitro inhibitory activity against truncated collagenase-1 (matrix metalloprotease-1).

[3] = target: 72 kDa type IV collagenase (Homo sapiens, UniProt P08253)
Sequence of 72 kDa type IV collagenase (P08253 whole entry): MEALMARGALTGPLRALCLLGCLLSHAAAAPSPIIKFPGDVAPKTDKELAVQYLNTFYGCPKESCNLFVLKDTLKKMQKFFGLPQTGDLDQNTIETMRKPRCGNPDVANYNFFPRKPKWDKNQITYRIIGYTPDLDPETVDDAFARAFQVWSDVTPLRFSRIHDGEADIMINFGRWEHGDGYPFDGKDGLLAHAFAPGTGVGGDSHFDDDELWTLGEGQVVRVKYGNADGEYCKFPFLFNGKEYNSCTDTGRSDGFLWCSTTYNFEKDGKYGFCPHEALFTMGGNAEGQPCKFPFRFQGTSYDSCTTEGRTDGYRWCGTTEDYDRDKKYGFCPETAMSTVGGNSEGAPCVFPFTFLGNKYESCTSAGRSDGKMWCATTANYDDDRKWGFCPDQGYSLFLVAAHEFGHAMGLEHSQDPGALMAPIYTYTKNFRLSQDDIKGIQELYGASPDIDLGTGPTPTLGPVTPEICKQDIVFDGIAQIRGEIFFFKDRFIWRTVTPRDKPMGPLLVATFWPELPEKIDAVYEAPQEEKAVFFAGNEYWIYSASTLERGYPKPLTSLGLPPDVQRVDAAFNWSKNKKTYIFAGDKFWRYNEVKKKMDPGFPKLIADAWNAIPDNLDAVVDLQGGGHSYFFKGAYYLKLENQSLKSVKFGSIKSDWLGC
Description: In vitro inhibitory activity against gelatinase-A (matrix metalloprotease-2).

[4] = target: Collagenase 3 (Homo sapiens, UniProt P45452)
Description: In vitro inhibitory activity against collagenase-3 (matrix metalloprotease-13).

[5] = target: Matrix metalloproteinase-9 (Homo sapiens, UniProt P14780)
Sequence of Matrix metalloproteinase-9 (P14780 whole entry): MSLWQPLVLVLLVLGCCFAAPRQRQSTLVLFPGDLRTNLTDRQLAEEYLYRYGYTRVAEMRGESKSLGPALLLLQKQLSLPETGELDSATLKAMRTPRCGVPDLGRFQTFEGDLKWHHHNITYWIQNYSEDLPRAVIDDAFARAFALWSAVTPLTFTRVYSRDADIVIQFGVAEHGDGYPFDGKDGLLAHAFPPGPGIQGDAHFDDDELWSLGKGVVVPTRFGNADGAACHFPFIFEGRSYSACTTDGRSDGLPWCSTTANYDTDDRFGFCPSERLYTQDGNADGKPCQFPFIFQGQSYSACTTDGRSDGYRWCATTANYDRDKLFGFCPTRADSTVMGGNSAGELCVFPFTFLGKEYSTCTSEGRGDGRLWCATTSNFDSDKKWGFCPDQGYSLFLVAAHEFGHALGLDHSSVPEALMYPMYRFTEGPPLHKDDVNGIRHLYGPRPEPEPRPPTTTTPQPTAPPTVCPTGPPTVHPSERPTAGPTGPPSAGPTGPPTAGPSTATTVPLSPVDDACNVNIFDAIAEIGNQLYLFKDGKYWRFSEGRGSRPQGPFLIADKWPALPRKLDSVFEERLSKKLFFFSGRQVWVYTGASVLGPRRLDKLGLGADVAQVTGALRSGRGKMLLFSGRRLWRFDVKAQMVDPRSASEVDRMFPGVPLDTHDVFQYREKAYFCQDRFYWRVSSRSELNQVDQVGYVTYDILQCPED
Description: Inhibition of gelatinase-B (Matrix metalloprotease-9)

[6] = target: Neutrophil collagenase (Homo sapiens, UniProt P22894)
Sequence of Neutrophil collagenase (P22894 whole entry): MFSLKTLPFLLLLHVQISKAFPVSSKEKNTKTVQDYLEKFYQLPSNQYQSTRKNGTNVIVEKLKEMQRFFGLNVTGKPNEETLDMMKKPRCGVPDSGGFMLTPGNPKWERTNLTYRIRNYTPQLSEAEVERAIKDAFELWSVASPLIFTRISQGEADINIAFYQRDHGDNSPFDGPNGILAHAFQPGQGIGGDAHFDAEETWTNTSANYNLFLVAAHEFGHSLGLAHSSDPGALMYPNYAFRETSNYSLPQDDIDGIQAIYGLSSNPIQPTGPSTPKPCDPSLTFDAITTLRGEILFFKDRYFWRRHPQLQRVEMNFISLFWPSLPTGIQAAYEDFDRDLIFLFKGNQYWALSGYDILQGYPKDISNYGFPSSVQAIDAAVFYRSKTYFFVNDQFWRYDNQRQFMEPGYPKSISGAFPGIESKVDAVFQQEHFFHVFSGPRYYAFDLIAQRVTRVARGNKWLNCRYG
Description: Inhibition of neutrophil collagenase (Matrix metalloprotease-8)

[7] = target: T1, Matrilysin; remark: listed apart in the source
Description: Inhibition of matrilysin (Matrix metalloprotease-7)

`CC1(C)SCCCN(S(=O)(=O)c2ccc(-c3ccccn3)s2)[C@H]1C(=O)NO` gave an IC50 [1] of 170 nM, an IC50 [2] of 1 nM and an IC50 [3] of 1 nM. For the same compound, the IC50 [4] was < 0.2 nM.
`CC1(C)SCCCN(S(=O)(=O)c2ccc(Oc3ccncc3)cc2)[C@H]1C(=O)NO` was tested, and the IC50 [1] was 105 nM, the IC50 [2] was 5.7 nM and the IC50 [3] was < 0.4 nM. The IC50 [4] was < 0.4 nM.
`COc1ccc(S(=O)(=O)N2CCS(=O)(=O)CC2C(=O)NO)cc1` (stereo unspecified) gave an IC50 [1] of 12800 nM, an IC50 [2] of 688 nM and an IC50 [4] of 18.4 nM.
Work on `COc1ccc(S(=O)(=O)N2CCCCCC2C(=O)NO)cc1` (stereo unspecified) yielded an IC50 [1] of 895 nM, an IC50 [2] of 49 nM and an IC50 [4] of 1.8 nM.
In the case of `COc1ccc(S(=O)(=O)N2CCSCC2C(=O)NO)cc1` (stereo unspecified), the IC50 [1] is reported as 2070 nM, the IC50 [2] is reported as 62 nM and the IC50 [4] is reported as 1 nM.
`COc1ccc(S(=O)(=O)N2CCCCCSC(C)(C)[C@@H]2C(=O)NO)cc1` was tested, and the IC50 [5] was 3.7 nM, the IC50 [6] was 0.6 nM and the IC50 [1] was 30 nM. For the same compound, the IC50 [2] was 3 nM, the IC50 [3] was 2.4 nM and the IC50 [4] was 1 nM.
For `CC1(C)SCCN(S(=O)(=O)c2ccc(Oc3ccncc3)cc2)[C@H]1C(=O)NO` [PRINOMASTAT], the Ki [7] was 54 nM, the IC50 [6] was < 0.4 nM and the IC50 [1] was 91 nM.
For `CCCCOc1ccc(S(=O)(=O)N2CCCSC(C)(C)[C@@H]2C(=O)NO)cc1`, the IC50 [2] was 18 nM, the IC50 [3] was 1 nM and the IC50 [4] was 2.3 nM.
In the case of `CC1(C)[C@H](C(=O)NO)N(S(=O)(=O)c2ccc(Br)cc2)CCCS1(=O)=O`, the IC50 [1] is reported as 79 nM, the IC50 [2] is reported as 1.2 nM and the IC50 [3] is reported as 20 nM. The IC50 [4] was 2.7 nM.
`CCCCCc1ccc(S(=O)(=O)N2CCCSC(C)(C)[C@@H]2C(=O)NO)cc1` was tested, and the IC50 [1] was 330 nM, the IC50 [2] was 61 nM and the IC50 [4] was 2.1 nM.
In the case of `COc1ccc(S(=O)(=O)N2CCCSC(C)(C)C2C(=O)NO)cc1` (single isomer, unassigned), the IC50 [5] is reported as 1390 nM, the IC50 [6] is reported as 881 nM and the IC50 [1] is reported as > 10000 nM. The IC50 [2] was 7780 nM, the IC50 [3] was 2900 nM and the IC50 [4] was 2330 nM.
`COc1ccc(S(=O)(=O)N2[C@@H](c3ccccc3)CCSC(C)(C)[C@@H]2C(=O)NO)cc1` gave an IC50 [1] of 110 nM and an IC50 [2] of 271 nM.
For `COc1ccc(S(=O)(=O)N2CCCSC[C@@]2(C)C(=O)NO)cc1`, the IC50 [1] was 17700 nM, the IC50 [2] was 217 nM and the IC50 [3] was 4.2 nM. The IC50 [4] was 4 nM.
`COc1ccc(S(=O)(=O)N2[C@@H](C(=O)NO)C(C)(C)SCC[C@H]2c2ccccc2)cc1` showed an IC50 [1] of 54 nM and an IC50 [2] of 236 nM.
With `COc1ccc(S(=O)(=O)N2CCCC2C(=O)NO)cc1` (stereo unspecified) the IC50 [2] was 297 nM.
`COc1ccc(S(=O)(=O)N2CCCCC2C(=O)NO)cc1` (stereo unspecified) showed an IC50 [1] of 313 nM and an IC50 [4] of 0.5 nM.
`CC1(C)SCCCN(S(=O)(=O)c2ccc(Br)cc2)[C@H]1C(=O)NO` gave an IC50 [1] of 17 nM, an IC50 [2] of 0.7 nM and an IC50 [3] of 6.8 nM. For the same compound, the IC50 [4] was 1.3 nM.
In the case of `CC1(C)SCCCN(S(=O)(=O)c2ccc(Oc3ccccc3)cc2)[C@H]1C(=O)NO`, the IC50 [1] is reported as 16 nM, the IC50 [2] is reported as 2.3 nM and the IC50 [4] is reported as < 0.4 nM.
With `COc1ccc(S(=O)(=O)N2CCCSC(C)(C)[C@@H]2C(=O)NO)cc1` the IC50 [5] was 1.9 nM, the IC50 [6] was 1.4 nM and the IC50 [1] was 30 nM. The IC50 [2] was 0.8 nM, the IC50 [3] was 2.7 nM and the IC50 [4] was 0.9 nM.
With `COc1ccc(S(=O)(=O)N2C[C@@H](O)CS(=O)(=O)C(C)(C)[C@@H]2C(=O)NO)cc1` the IC50 [2] was 1.9 nM, the IC50 [3] was 5.2 nM and the IC50 [4] was 1.3 nM.
`COCCOc1ccc(S(=O)(=O)N2CCCSC(C)(C)[C@@H]2C(=O)NO)cc1` was tested, and the IC50 [1] was 509 nM, the IC50 [2] was 42 nM and the IC50 [3] was 11.4 nM. The IC50 [4] was 5.6 nM.
`CCCc1ccc(S(=O)(=O)N2CCCSC(C)(C)[C@@H]2C(=O)NO)cc1` gave an IC50 [1] of 637 nM, an IC50 [2] of 22 nM and an IC50 [3] of 35 nM. It also gave an IC50 [4] of 7.5 nM.
Compound `COc1ccc(S(=O)(=O)N2CSCC2C(=O)NO)cc1` (stereo unspecified) has an IC50 [2] of 638 nM.
With `COc1ccc(S(=O)(=O)N2CCS(=O)(=O)C(C)(C)[C@@H]2C(=O)NO)cc1` the IC50 [2] was 13 nM, the IC50 [3] was 14 nM and the IC50 [4] was 4.3 nM.
`COCOC1CSC(C)(C)[C@H](C(=O)NO)N(S(=O)(=O)c2ccc(OC)cc2)C1` (stereo partly specified) showed an IC50 [1] of 38 nM, an IC50 [3] of 1.8 nM and an IC50 [4] of 1.4 nM.
`Cc1cc(Br)ccc1S(=O)(=O)N1CCCSC(C)(C)[C@@H]1C(=O)NO` gave an IC50 [1] of 354 nM, an IC50 [2] of 0.5 nM and an IC50 [3] of 24 nM. For the same compound, the IC50 [4] was 9.2 nM.
Work on `COc1ccc(S(=O)(=O)N2CCCCC(C)(C)[C@@H]2C(=O)NO)cc1` yielded an IC50 [5] of 0.5 nM, an IC50 [6] of 1.9 nM and an IC50 [1] of 18 nM. It also gave an IC50 [2] of 2.4 nM and an IC50 [3] of 1.4 nM.
In the case of `COc1ccc(S(=O)(=O)N2CCCSCC2C(=O)NO)cc1` (stereo unspecified), the IC50 [1] is reported as 1100 nM, the IC50 [2] is reported as 64 nM and the IC50 [4] is reported as 1.9 nM.
`CCCCOc1ccc(S(=O)(=O)N2CCCS(=O)(=O)C(C)(C)[C@@H]2C(=O)NO)cc1` showed an IC50 [1] of 27 nM, an IC50 [2] of 19 nM and an IC50 [3] of 1.2 nM. For the same compound, the IC50 [4] was 0.4 nM.
With `COc1ccc(S(=O)(=O)N2CCSC(C)(C)[C@@H]2C(=O)NO)cc1` the IC50 [5] was 0.9 nM, the IC50 [1] was 23 nM and the IC50 [2] was 0.4 nM. It also gave an IC50 [3] of 1.4 nM and an IC50 [4] of 1 nM.
With `COc1ccc(S(=O)(=O)N2CCOCCSC(C)(C)[C@@H]2C(=O)NO)cc1` the IC50 [1] was < 100 nM, the IC50 [2] was < 1 nM and the IC50 [3] was 3.5 nM. For the same compound, the IC50 [4] was 0.2 nM.
For `COc1ccc(S(=O)(=O)N2CCOCCS(=O)(=O)C(C)(C)[C@@H]2C(=O)NO)cc1`, the IC50 [1] was 183 nM, the IC50 [2] was 1.9 nM and the IC50 [4] was 3.3 nM.
`COc1ccc(S(=O)(=O)N2CCNCC2C(=O)NO)cc1` (stereo unspecified) gave an IC50 [1] of 2390 nM, an IC50 [2] of 175 nM and an IC50 [4] of 1.7 nM.
`COc1ccc(S(=O)(=O)N2CCOCC2C(=O)NO)cc1` (stereo unspecified) gave an IC50 [2] of 49.5 nM and an IC50 [4] of 1 nM.
In the case of `CC1(C)SCCCN(S(=O)(=O)c2ccc(-c3ccc(F)cc3)cc2)[C@H]1C(=O)NO`, the IC50 [1] is reported as < 100 nM, the IC50 [2] is reported as 2.9 nM and the IC50 [3] is reported as 1.3 nM. The IC50 [4] was < 1 nM.
`COc1ccc(S(=O)(=O)N2CCCS(=O)(=O)C(C)(C)[C@@H]2C(=O)NO)cc1` gave an IC50 [5] of 3.6 nM, an IC50 [6] of 2.4 nM and an IC50 [1] of 41 nM. It also gave an IC50 [3] of 7.8 nM and an IC50 [4] of 2.1 nM.
